Assay results: ChEMBL document CHEMBL2074031, “Inhibitory effects of CYP3A4 substrates and their metabolites on P-glycoprotein-mediated transport” (Eur J Pharm Sci, 2001)

Legend:
Format in all cases: functional, cell-based
[1] = target: T1, ATP-dependent translocase ABCB1 (Homo sapiens, UniProt P08183); assay: TP_TRANSPORTER: inhibition of Digoxin transepithelial transport (basal to apical) (Digoxin: 0.025 uM, Oxidized nifedipine: 50 uM) in MDR1-expressing LLC-PK1 cells; conditions: pig, llc-pk1, 50 µM
T1 sequence (P08183 whole entry): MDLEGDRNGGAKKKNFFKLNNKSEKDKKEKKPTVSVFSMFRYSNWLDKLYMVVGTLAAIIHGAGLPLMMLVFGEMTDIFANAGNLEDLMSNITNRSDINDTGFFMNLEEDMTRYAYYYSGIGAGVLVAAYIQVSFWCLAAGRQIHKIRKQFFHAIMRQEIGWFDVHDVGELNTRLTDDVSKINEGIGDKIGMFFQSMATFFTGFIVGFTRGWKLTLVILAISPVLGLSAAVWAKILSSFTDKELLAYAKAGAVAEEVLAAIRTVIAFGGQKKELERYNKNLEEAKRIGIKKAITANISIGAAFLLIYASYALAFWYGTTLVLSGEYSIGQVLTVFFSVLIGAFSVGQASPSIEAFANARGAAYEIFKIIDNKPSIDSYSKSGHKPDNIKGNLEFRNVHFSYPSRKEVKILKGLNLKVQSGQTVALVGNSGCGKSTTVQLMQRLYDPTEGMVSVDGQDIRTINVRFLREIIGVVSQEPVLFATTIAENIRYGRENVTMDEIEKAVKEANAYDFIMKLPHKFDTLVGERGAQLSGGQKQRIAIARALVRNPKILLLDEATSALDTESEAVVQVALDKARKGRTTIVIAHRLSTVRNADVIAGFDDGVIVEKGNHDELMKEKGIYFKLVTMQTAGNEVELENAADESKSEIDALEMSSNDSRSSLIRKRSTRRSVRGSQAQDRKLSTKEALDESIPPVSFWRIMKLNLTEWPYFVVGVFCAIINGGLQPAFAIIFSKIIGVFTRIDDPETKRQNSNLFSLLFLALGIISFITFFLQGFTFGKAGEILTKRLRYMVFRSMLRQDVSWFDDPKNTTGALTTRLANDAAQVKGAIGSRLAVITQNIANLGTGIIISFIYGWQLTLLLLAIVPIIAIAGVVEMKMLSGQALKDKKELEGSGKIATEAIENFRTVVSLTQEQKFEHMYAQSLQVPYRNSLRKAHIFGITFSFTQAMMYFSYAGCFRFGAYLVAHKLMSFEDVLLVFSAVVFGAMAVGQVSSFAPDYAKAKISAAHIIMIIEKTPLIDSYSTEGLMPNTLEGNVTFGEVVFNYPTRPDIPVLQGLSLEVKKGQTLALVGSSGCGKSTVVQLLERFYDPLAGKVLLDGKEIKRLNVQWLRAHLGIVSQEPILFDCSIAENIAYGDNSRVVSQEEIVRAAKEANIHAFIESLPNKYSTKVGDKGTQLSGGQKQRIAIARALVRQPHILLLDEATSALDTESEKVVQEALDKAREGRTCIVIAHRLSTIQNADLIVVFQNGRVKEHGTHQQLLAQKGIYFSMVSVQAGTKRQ

[2] = target: T1, ATP-dependent translocase ABCB1; assay: TP_TRANSPORTER: inhibition of Daunorubicin transepithelial transport (basal to apical) (Daunorubicin: 0.035 uM, Oxidized nifedipine: 50 uM) in MDR1-expressing LLC-PK1 cells; conditions: pig, llc-pk1, 50 µM
[3] = target: T1, ATP-dependent translocase ABCB1; assay: TP_TRANSPORTER: inhibition of Daunorubicin transepithelial transport (basal to apical)(Daunorubicin: 0.035 uM, 4-hydroxymidazolam: 50 uM) in MDR1-expressing LLC-PK1 cells; conditions: pig, llc-pk1, 50 µM
[4] = target: T1, ATP-dependent translocase ABCB1; assay: TP_TRANSPORTER: inhibition of Daunorubicin transepithelial transport (basal to apical)(Daunorubicin: 0.035 uM, 6-hydroxyazelastine: 50 uM) in MDR1-expressing LLC-PK1 cells; conditions: pig, llc-pk1, 50 µM
[5] = target: T1, ATP-dependent translocase ABCB1; assay: TP_TRANSPORTER: inhibition of Digoxin transepithelial transport (basal to apical)(Digoxin: 0.025 uM, 6-hydroxyazelastine: 50 uM) in MDR1-expressing LLC-PK1 cells; conditions: pig, llc-pk1, 50 µM
[6] = target: T1, ATP-dependent translocase ABCB1; assay: TP_TRANSPORTER: inhibition of Digoxin transepithelial transport (basal to apical)(Digoxin: 0.025 uM, 6beta-hydroxytestosterone: 50 uM) in MDR1-expressing LLC-PK1 cells; conditions: pig, llc-pk1, 50 µM
[7] = target: T1, ATP-dependent translocase ABCB1; assay: TP_TRANSPORTER: inhibition of Daunorubicin transepithelial transport (basal to apical)(Daunorubicin: 0.035 uM, 6beta-hydroxytestosterone: 50 uM) in MDR1-expressing LLC-PK1 cells; conditions: pig, llc-pk1, 50 µM
[8] = target: T1, ATP-dependent translocase ABCB1; assay: TP_TRANSPORTER: inhibition of Daunorubicin transepithelial transport (basal to apical)(Daunorubicin: 0.035 uM, 1'-hydroxymidazolam: 50 uM) in MDR1-expressing LLC-PK1 cells; conditions: pig, llc-pk1, 50 µM
[9] = target: T1, ATP-dependent translocase ABCB1; assay: TP_TRANSPORTER: inhibition of Digoxin transepithelial transport (basal to apical)(Digoxin: 0.025 uM, 1'-hydroxymidazolam: 50 uM) in MDR1-expressing LLC-PK1 cells; conditions: pig, llc-pk1, 50 µM
[10] = target: T1, ATP-dependent translocase ABCB1; assay: TP_TRANSPORTER: inhibition of Digoxin transepithelial transport (basal to apical) (Digoxin: 0.025 uM) in MDR1-expressing LLC-PK1 cells
[11] = target: T1, ATP-dependent translocase ABCB1; assay: TP_TRANSPORTER: inhibition of Daunorubicin transepithelial transport (basal to apical) (Daunorubicin: 0.035 uM) in MDR1-expressing LLC-PK1 cells
[12] = target: T1, ATP-dependent translocase ABCB1; assay: TP_TRANSPORTER: inhibition of Daunorubicin transepithelial transport (basal to apical)(Daunorubicin: 0.035 uM, Midazolam: 50 uM) in MDR1-expressing LLC-PK1 cells; conditions: pig, llc-pk1, 50 µM
[13] = target: T1, ATP-dependent translocase ABCB1; assay: TP_TRANSPORTER: inhibition of Digoxin transepithelial transport (basal to apical)(Digoxin: 0.025 uM, Midazolam: 50 uM) in MDR1-expressing LLC-PK1 cells; conditions: pig, llc-pk1, 50 µM
[14] = target: T1, ATP-dependent translocase ABCB1; assay: TP_TRANSPORTER: inhibition of Daunorubicin transepithelial transport (basal to apical) (Daunorubicin: 0.035 uM, Nifedipine: 50 uM) in MDR1-expressing LLC-PK1 cells; conditions: pig, llc-pk1, 50 µM
[15] = target: T1, ATP-dependent translocase ABCB1; assay: TP_TRANSPORTER: inhibition of Digoxin transepithelial transport (basal to apical)(Digoxin: 0.025 uM, Testosterone: 50 uM) in MDR1-expressing LLC-PK1 cells; conditions: pig, llc-pk1, 50 µM
[16] = target: T1, ATP-dependent translocase ABCB1; assay: TP_TRANSPORTER: inhibition of Daunorubicin transepithelial transport (basal to apical)(Daunorubicin: 0.035 uM, Testosterone: 50 uM) in MDR1-expressing LLC-PK1 cells; conditions: pig, llc-pk1, 50 µM

SMILES: COC(=O)c1c(C)nc(C)c(C(=O)OC)c1-c1ccccc1[N+](=O)[O-]
- Activity [1]: is not an inhibitor [-]
- Activity [2]: is not an inhibitor [-]

SMILES: Cc1ncc2n1-c1ccc(Cl)cc1C(c1ccccc1F)=NC2O (stereo not given) [4-Hydroxymidazolam]
- Activity [3]: is not an inhibitor [-]

SMILES: CN1CCCC(N2NC(Cc3ccc(Cl)cc3)c3cc(O)ccc3C2=O)CC1 (stereo not given) [6-hydroxyazelastine]
- Activity [4]: is not an inhibitor [-]
- Activity [5]: is not an inhibitor [-]

SMILES: C[C@]12CC[C@H]3[C@@H](C[C@@H](O)C4=CC(=O)CC[C@@]43C)[C@@H]1CC[C@@H]2O [6beta-hydroxytestosterone]
- Activity [6]: is not an inhibitor [-]
- Activity [7]: is not an inhibitor [-]

SMILES: OCc1ncc2n1-c1ccc(Cl)cc1C(c1ccccc1F)=NC2 [ALPHA-HYDROXY-MIDAZOLAM]
- Activity [8]: is not an inhibitor [-]
- Activity [9]: is not an inhibitor [-]

SMILES: CN1CCCC(n2nc(Cc3ccc(Cl)cc3)c3ccccc3c2=O)CC1 (stereo not given) [AZELASTINE]
- IC50 [10]: 30 µM
- IC50 [11]: 16 µM

SMILES: CCCCc1oc2ccccc2c1C(=O)c1cc(I)c(OCCNCC)c(I)c1 [DESETHYLAMIODARONE]
- IC50 [10]: 25.2 µM
- IC50 [11]: 15.4 µM

SMILES: O=c1c2ccccc2c(Cc2ccc(Cl)cc2)nn1C1CCCNCC1 (stereo not given) [DESMETHYLAZELASTINE]
- IC50 [10]: 41.8 µM
- IC50 [11]: 11.8 µM

SMILES: Cc1ncc2n1-c1ccc(Cl)cc1C(c1ccccc1F)=NC2 [MIDAZOLAM]
- Activity [12]: is not an inhibitor [-]
- Activity [13]: is not an inhibitor [-]

SMILES: COC(=O)C1=C(C)NC(C)=C(C(=O)OC)C1c1ccccc1[N+](=O)[O-] [NIFEDIPINE]
- Activity [14]: is not an inhibitor [-]

SMILES: C[C@]12CC[C@H]3[C@@H](CCC4=CC(=O)CC[C@@]43C)[C@@H]1CC[C@@H]2O [TESTOSTERONE]
- Activity [15]: is not an inhibitor [-]
- Activity [16]: is not an inhibitor [-]
